Test results published in paper PMC9926489, “Chemical Optimization of Selective Pseudomonas aeruginosa LasB Elastase Inhibitors and Their Impact on LasB-Mediated Activation of IL-1β in Cellular and Animal Infection Models” (ACS Infectious Diseases, 2023).

What was measured:
[1] = target: T1, purified LasB (Pseudomonas aeruginosa, UniProt P14756); experiment: LasB inhibition, fluorimetric Abz-AGLA-Nba hydrolysis assay with purified LasB; assay type: biochemical
T1 construct: The mature LasB protein is a 33 kDa metalloprotease, which is secreted from P. aeruginosa; host or cells: P. aeruginosa PAO1 (native secretion, culture supernatant)
T1 sequence (P14756 198-498): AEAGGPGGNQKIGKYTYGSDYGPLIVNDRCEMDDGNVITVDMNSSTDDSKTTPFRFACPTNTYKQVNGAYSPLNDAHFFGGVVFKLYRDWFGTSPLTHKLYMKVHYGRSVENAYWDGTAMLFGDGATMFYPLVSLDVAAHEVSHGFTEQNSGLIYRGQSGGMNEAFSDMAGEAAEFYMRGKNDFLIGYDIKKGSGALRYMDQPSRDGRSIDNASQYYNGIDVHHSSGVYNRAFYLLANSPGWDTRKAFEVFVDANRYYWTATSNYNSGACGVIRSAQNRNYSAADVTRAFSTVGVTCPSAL
Excerpt: This was chosen as the starting point for a medicinal chemistry-driven lead optimization program aiming to improve potency and solubility whilst retaining selectivity against host metalloenzymes. All synthesized compounds were initially assessed in a fluorimetric assay measuring hydrolysis of a fluorogenic substrate Abz-Ala-Gly-Leu-Ala-4-nitrobenzylamide (Abz-AGLA-Nba) by purified LasB and IC50 values determined (Tables 1 and 2). Inhibition of elastin hydrolytic activity was confirmed using an orthogonal assay measuring hydrolysis of Elastin Congo Red (ECR) complex by LasB prepared directly from a P. aeruginosa culture supernatant (Tables 1 and 2). […] Aqueous solubility was determined for most compounds (Tables 1 and 2).
Native LasB protein was purified from culture supernatants of P. aeruginosa strain PAO1 (Charles River Laboratories, U.K.). Briefly, the sample was concentrated by ultrafiltration and the protein was purified by chromatography using an anion exchange (pH 8.5) step followed by gel filtration. This procedure yielded an enzyme preparation (0.8 mg/mL) of >98% purity. The enzyme was stored at −80 °C.
(§1) LasB inhibition assays were performed using purified LasB enzyme (1 ng/well) for compound screening or using culture supernatants (prepared as described in the ECR assay) for testing LasB variants. Hydrolysis of the fluorogenic peptide substrate 2-aminobenzoyl-Ala-Gly-Leu-Ala-4-nitrobenzylamide (Abz-AGLA-Nba; Peptide International) in 50 mM Tris-HCl (pH 7.4), supplemented with 2.5 mM CaCl2 was followed using an Envision microplate reader (PerkinElmer) at 315 nm excitation and 430 nm emission. For screening of lead compounds, assays were performed in the presence of 0.01% Triton X-100 with a range of inhibitor concentrations from 0.003 to 3.2 μM. IC50 values were determined from Hill plots using Dotmatics Studies ELN software. For the mechanism of inhibition studies, hydrolysis rates were measured in the presence of variable concentrations of substrate and inhibitor, and the inhibition constant (Ki) was determined using Dixon plot analysis.[31]

[2] = target: T2, LasB S460T (Pseudomonas aeruginosa, UniProt P14756, S460T); experiment: LasB variant inhibition, culture supernatant: S460T; assay type: biochemical, P. aeruginosa
T2 construct: Most changes were identified in the mature peptide, however some occurred in the propeptide domain; endogenous in cells; host or cells: P. aeruginosa clinical CF isolate, culture supernatant
T2 sequence (P14756 198-498 S460T): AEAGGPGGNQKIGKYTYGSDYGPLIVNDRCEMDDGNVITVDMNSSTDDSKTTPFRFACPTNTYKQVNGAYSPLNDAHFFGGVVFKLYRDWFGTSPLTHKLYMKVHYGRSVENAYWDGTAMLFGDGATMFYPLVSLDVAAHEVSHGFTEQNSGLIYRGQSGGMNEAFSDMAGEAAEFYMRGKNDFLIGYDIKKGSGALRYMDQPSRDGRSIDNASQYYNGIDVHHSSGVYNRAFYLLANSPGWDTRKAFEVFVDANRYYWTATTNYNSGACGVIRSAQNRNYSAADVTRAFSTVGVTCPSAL
Excerpt: Compounds 12 and 16 were discovered as a result of optimizing potency against the LasB protein expressed from the wild-type (WT) reference strain P. aeruginosa PAO1. To understand the relative prevalence of the WT LasB protein versus other variants in clinical respiratory P. aeruginosa strains, the full-length lasB gene was amplified by PCR from 255 clinical isolates (obtained from CF sputum samples). […] Most changes were identified in the mature peptide, however some occurred in the propeptide domain, which could affect LasB processing (marked in italics in Table 4).
as §1, with “For screening of lead compounds, assays were performed in the presence of 0.01% Triton X-100 with a range of inhibitor concentrations from 0.003 to 3.2 μM.” left out

Row | SMILES | IC50 [1] | Ki [1] | IC50 [2]
1 | COc1cc2sc(CNC(=O)C3(CC(=O)O)Cc4ccccc4C3)nc2cc1OCCC[N+](C)(C)C [Compound 12] | 130 nM | 35 nM | 211 nM
2 | COc1cc2sc(CNC(=O)C3(CC(=O)O)Cc4cc(F)c(F)cc4C3)nc2cc1OCCC[N+](C)(CCO)CCO [Compound 16] | 80 nM | 32 nM | 201 nM
